Laboratory results taken from PMC9658561, “[^99mTc]Tc-PSMA-T4—Novel SPECT Tracer for Metastatic PCa: From Bench to Clinic” (Molecules, 2022).
Read-outs that look alike come from different tables or passages of the source.

Assays:
[1] = molecular target: T1, PSMA (Homo sapiens, UniProt Q04609); test: Competitive binding on LNCaP cell membranes with [131I]I-MIP1095 as competitive radioligand; conditions: [131I]I-MIP1095 radioligand, 2 h at 37 °C
T1 construct: host or cells: LNCaP cell membranes
Description: Cells from prostate cancer carcinomas: LNCaP and PC3, were isolated like previously described. The cells were harvested using 1 mL/flask of Trypsin-EDTA solution and centrifuged (1500 rpm for 15 min (LNCaP) and 1300 rpm for 6 min (PC3)). Received cell sediment was resuspended in 9.7 mM NaHCO3 containing 0.3 mM NaH2PO4 and incubated for 30 min at 4 °C. The solution was dispensed on 1.5 mL Eppendorf and centrifuged (13,500 rpm for 30 min). The supernatant was removed, the pellet was resuspended in 50 mM Tris-HCl Buffer (pH 7.4) and homogenized using a syringe with a thin needle. The solution was centrifuged (13,500 rpm for 30 min), and the final pellet was suspended in 50 mM Tris-HCl buffer (pH 7.4) and transferred to −70 °C.
The LNCaP cell membranes were distributed (in four replicates) in the constant amount on special MultiScreen™ 96 well assay plates. 100 µL of un-supplemented RPMI 1640 medium and 50 µL of increasing concentration of the unlabeled PSMA inhibitors was added to each well. As a control, 50 µL of PBS in 100 µL of media was used. After 15 min incubation at 37 °C, 50 µL of [^131I]I-MIP-1095 was added. Plates were incubated for 2 h at 37 °C. After an appropriate time, the supernatant solution was filtered under vacuum, and the membranes were washed twice with PBS solution. Filters and membranes were extruded to the tubes using MultiScreen Multiple Punch. The radioactivity of the filters was measured using a Wallac Wizard 1470 γ counter. The IC50 was evaluated and determined using GraphPad Prism 9.4 statistic program. As a control, PSMA-11 was used.

[2] = molecular target: PSMA; set-up: method as in PMID 24983957; conditions: cited from earlier work
[3] = tested on: PSMA; set-up: method as in PMID 28450562; conditions: affinity for PSMA ref 53; cited from earlier work

T1 sequence (Q04609 whole entry): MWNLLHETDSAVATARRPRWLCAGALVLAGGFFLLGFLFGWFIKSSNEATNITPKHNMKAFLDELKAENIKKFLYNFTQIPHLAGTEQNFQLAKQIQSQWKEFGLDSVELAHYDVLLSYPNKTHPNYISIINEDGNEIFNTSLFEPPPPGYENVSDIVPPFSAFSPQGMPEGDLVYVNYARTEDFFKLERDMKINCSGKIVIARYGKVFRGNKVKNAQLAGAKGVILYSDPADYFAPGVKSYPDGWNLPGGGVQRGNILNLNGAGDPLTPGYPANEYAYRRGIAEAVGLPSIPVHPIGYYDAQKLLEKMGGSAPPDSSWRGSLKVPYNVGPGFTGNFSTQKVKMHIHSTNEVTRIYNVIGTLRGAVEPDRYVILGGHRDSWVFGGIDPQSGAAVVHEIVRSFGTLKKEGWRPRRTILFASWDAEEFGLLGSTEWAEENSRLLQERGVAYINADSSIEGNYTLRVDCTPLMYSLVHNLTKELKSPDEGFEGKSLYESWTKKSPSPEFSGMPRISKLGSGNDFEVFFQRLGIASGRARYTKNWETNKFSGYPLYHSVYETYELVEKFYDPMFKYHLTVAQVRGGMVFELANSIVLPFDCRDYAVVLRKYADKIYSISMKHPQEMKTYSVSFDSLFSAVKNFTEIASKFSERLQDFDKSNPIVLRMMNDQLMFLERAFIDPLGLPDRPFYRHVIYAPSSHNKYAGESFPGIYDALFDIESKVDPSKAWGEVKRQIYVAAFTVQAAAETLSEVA

| SMILES | IC50 [1] | other results |
| --- | --- | --- |
| O=C(O)CCc1ccc(O)c(CN(CCN(CC(=O)O)Cc2cc(CCC(=O)NCCCCCC(=O)NCCCC[C@H](NC(=O)N[C@@H](CCC(=O)O)C(=O)O)C(=O)O)ccc2O)CC(=O)O)c1 [PSMA-11] | 715 nM | Kd [2]: 11.4 nM |
| NNc1ccc(C(=O)NCCCCCC(=O)N[C@@H](Cc2c[nH]c3ccccc23)C(=O)NCCCC[C@H](NC(=O)N[C@@H](CCC(=O)O)C(=O)O)C(=O)O)cn1 [PSMA-T3, Glu-CO-Lys-LTrp-6Ahx-HYNIC] | 74.6 nM | – |
| NNc1ccc(C(=O)NC[C@H]2CC[C@H](C(=O)N[C@@H](Cc3c[nH]c4ccccc34)C(=O)NCCCC[C@H](NC(=O)N[C@@H](CCC(=O)O)C(=O)O)C(=O)O)CC2)cn1 [PSMA-T4, (S)-2-{3-[(S)-5-[(S)-3-(1H-Indol-3-yl)-2-({(1r,4r)-4-[(6-hydrazino-nicotinoylamino)methyl]cyclohexyl}carbonylamino)propionylamino]-1-carboxypentyl]ureido}glutaric acid] | 79.5 nM | – |
| O.O=C([O-])CN(CCN(CC(=O)[O-])Cc1cc(CCC(=O)O)ccc1O)Cc1cc(CCC(=O)NCCCCCC(=O)NCCCC[C@H](NC(=O)N[C@@H](CCC(=O)O)C(=O)O)C(=O)O)ccc1[O-].[Ga+3] [[^68Ga]Ga-PSMA-11, Glu-NH-CO-Lys-(ahx)-HBED-CC-[^68Ga]Ga] | – | Kd ([2]; literature value ref 15): 11.4 ± 7.1 nM |
| O=C(O)CC[C@H](NC(=O)N[C@@H](CCCCNC(=O)Nc1ccc([131I])cc1)C(=O)O)C(=O)O [[^131I]I-MIP-1095, (2S)-2-({[(1S)-1-carboxy-5-({[4-[¹³¹I]iodophenyl]carbamoyl}amino)pentyl]carbamoyl}amino)pentanedioic acid] | – | IC50 [3]: 0.3 nM |
